Assay results reported in the supplement of paper PMC10307832.

Legend:
Assay in all cases: relative viability (nuclei count vs DMSO), 5 days (fraction); higher = more cells survive
[1] = test system: LXF-289
How it was run: (§1)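 The day after seeding in 1536-well plates, lung cancer cell lines were treated by pin tool with a single drug, or with a fixed anchor-drug dose together with five library-drug doses (not always all listed) in √10 steps. After 5 days, a combined fix-and-stain solution (final 0.05% Triton X-100, 1% formaldehyde, 1 ug/ml Hoechst) was added. Nuclei counted on 4× images gave relative viability as treated counts over vehicle counts, reported as the median of duplicate plates.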

[2] = test system: UMC-11
How it was run: as §1

[3] = test system: HCC-78
How it was run: as §1

[4] = test system: EPLC-272H
How it was run: as §1

[5] = test system: EMC-BAC-2
How it was run: as §1

[6] = test system: NCI-H1975
How it was run: as §1

[7] = test system: NCI-H2085
How it was run: as §1

[8] = test system: ChaGo-K-1
How it was run: as §1

[9] = test system: NCI-H1915
How it was run: as §1

[10] = test system: NCI-H3122
How it was run: as §1

[11] = test system: NCI-H322M
How it was run: as §1

[12] = test system: NCI-H2023
How it was run: as §1

[13] = test system: HCC-15
How it was run: as §1

[14] = test system: HOP-62
How it was run: as §1

[15] = test system: NCI-H1666
How it was run: as §1

[16] = test system: NCI-H358
How it was run: as §1

[17] = test system: NCI-H441
How it was run: as §1

[18] = test system: COR-L 105
How it was run: as §1

[19] = test system: CAL-12T
How it was run: as §1

[20] = test system: NCI-H1755
How it was run: as §1

[21] = test system: NCI-H2126
How it was run: as §1

[22] = test system: ABC-1
How it was run: as §1

## CC(=O)O[C@@]12CO[C@@H]1C[C@H](O)[C@@]1(C)C(=O)[C@H](O)C3=C(C)[C@@H](OC(=O)[C@H](O)[C@@H](NC(=O)OC(C)(C)C)c4ccccc4)C[C@@](O)([C@@H](OC(=O)c4ccccc4)[C@H]21)C3(C)C [Docetaxel] + Cc1nc(Nc2ncc(C(=O)Nc3c(C)cccc3Cl)s2)cc(N2CCN(CCO)CC2)n1 [Dasatinib] (partner 0.075 µM)
[1]; first compound 0.0002 µM
  relative viability: 0.181
[1]; first compound 0.000632 µM
  relative viability: 0.154
[1]; first compound 0.002 µM
  relative viability: 0.0677
[1]; first compound 0.006325 µM
  relative viability: 0.0536
[1]; first compound 0.02 µM
  relative viability: 0.0314
[2]; first compound 0.0002 µM
  relative viability: 0.429
[2]; first compound 0.000632 µM
  relative viability: 0.42
[2]; first compound 0.002 µM
  relative viability: 0.264
[2]; first compound 0.006325 µM
  relative viability: 0.21
[2]; first compound 0.02 µM
  relative viability: 0.171
[3]; first compound 0.0002 µM
  relative viability: 0.352
[3]; first compound 0.000632 µM
  relative viability: 0.3
[3]; first compound 0.002 µM
  relative viability: 0.235
[3]; first compound 0.006325 µM
  relative viability: 0.248
[3]; first compound 0.02 µM
  relative viability: 0.3
[4]; first compound 0.0002 µM
  relative viability: 0.358
[4]; first compound 0.000632 µM
  relative viability: 0.235
[4]; first compound 0.002 µM
  relative viability: 0.142
[4]; first compound 0.006325 µM
  relative viability: 0.107
[4]; first compound 0.02 µM
  relative viability: 0.0615
[5]; first compound 0.0002 µM
  relative viability: 0.298
[5]; first compound 0.000632 µM
  relative viability: 0.232
[5]; first compound 0.002 µM
  relative viability: 0.192
[5]; first compound 0.006325 µM
  relative viability: 0.228
[5]; first compound 0.02 µM
  relative viability: 0.132
[6]; first compound 0.0002 µM
  relative viability: 0.377
[6]; first compound 0.000632 µM
  relative viability: 0.284
[6]; first compound 0.002 µM
  relative viability: 0.152
[6]; first compound 0.006325 µM
  relative viability: 0.127
[6]; first compound 0.02 µM
  relative viability: 0.107
[7]; first compound 0.0002 µM
  relative viability: 0.229
[7]; first compound 0.000632 µM
  relative viability: 0.268
[7]; first compound 0.002 µM
  relative viability: 0.217
[7]; first compound 0.006325 µM
  relative viability: 0.24
[7]; first compound 0.02 µM
  relative viability: 0.176
[8]; first compound 0.0002 µM
  relative viability: 0.486
[8]; first compound 0.000632 µM
  relative viability: 0.429
[8]; first compound 0.002 µM
  relative viability: 0.404
[8]; first compound 0.006325 µM
  relative viability: 0.257
[8]; first compound 0.02 µM
  relative viability: 0.132
[9]; first compound 0.0002 µM
  relative viability: 0.304
[9]; first compound 0.000632 µM
  relative viability: 0.331
[9]; first compound 0.002 µM
  relative viability: 0.228
[9]; first compound 0.006325 µM
  relative viability: 0.153
[9]; first compound 0.02 µM
  relative viability: 0.0717
[10]; first compound 0.0002 µM
  relative viability: 0.822
[10]; first compound 0.000632 µM
  relative viability: 0.694
[10]; first compound 0.002 µM
  relative viability: 0.508
[10]; first compound 0.006325 µM
  relative viability: 0.102
[10]; first compound 0.02 µM
  relative viability: 0.078
[11]; first compound 0.0002 µM
  relative viability: 0.242
[11]; first compound 0.000632 µM
  relative viability: 0.251
[11]; first compound 0.002 µM
  relative viability: 0.372
[11]; first compound 0.006325 µM
  relative viability: 0.406
[11]; first compound 0.02 µM
  relative viability: 0.346
[12]; first compound 0.0002 µM
  relative viability: 0.467
[12]; first compound 0.000632 µM
  relative viability: 0.339
[12]; first compound 0.002 µM
  relative viability: 0.134
[12]; first compound 0.006325 µM
  relative viability: 0.123
[12]; first compound 0.02 µM
  relative viability: 0.0567
[13]; first compound 0.0002 µM
  relative viability: 0.456
[13]; first compound 0.000632 µM
  relative viability: 0.221
[13]; first compound 0.002 µM
  relative viability: 0.16
[13]; first compound 0.006325 µM
  relative viability: 0.21
[13]; first compound 0.02 µM
  relative viability: 0.115
[14]; first compound 0.0002 µM
  relative viability: 0.56
[14]; first compound 0.000632 µM
  relative viability: 0.58
[14]; first compound 0.002 µM
  relative viability: 0.309
[14]; first compound 0.02 µM
  relative viability: 0.155
[15]; first compound 0.0002 µM
  relative viability: 0.684
[15]; first compound 0.000632 µM
  relative viability: 0.594
[15]; first compound 0.002 µM
  relative viability: 0.465
[15]; first compound 0.006325 µM
  relative viability: 0.414
[15]; first compound 0.02 µM
  relative viability: 0.284
[16]; first compound 0.0002 µM
  relative viability: 0.159
[16]; first compound 0.000632 µM
  relative viability: 0.179
[16]; first compound 0.006325 µM
  relative viability: 0.111
[16]; first compound 0.02 µM
  relative viability: 0.0699
[17]; first compound 0.0002 µM
  relative viability: 0.621
[17]; first compound 0.000632 µM
  relative viability: 0.499
[17]; first compound 0.002 µM
  relative viability: 0.235
[17]; first compound 0.006325 µM
  relative viability: 0.224
[17]; first compound 0.02 µM
  relative viability: 0.148
[18]; first compound 0.0002 µM
  relative viability: 0.322
[18]; first compound 0.000632 µM
  relative viability: 0.288
[18]; first compound 0.002 µM
  relative viability: 0.224
[18]; first compound 0.006325 µM
  relative viability: 0.249
[18]; first compound 0.02 µM
  relative viability: 0.202
[19]; first compound 0.0002 µM
  relative viability: 0.412
[19]; first compound 0.000632 µM
  relative viability: 0.192
[19]; first compound 0.002 µM
  relative viability: 0.137
[19]; first compound 0.006325 µM
  relative viability: 0.0909
[19]; first compound 0.02 µM
  relative viability: 0.0651
[20]; first compound 0.0002 µM
  relative viability: 0.385
[20]; first compound 0.000632 µM
  relative viability: 0.359
[20]; first compound 0.002 µM
  relative viability: 0.306
[20]; first compound 0.006325 µM
  relative viability: 0.286
[20]; first compound 0.02 µM
  relative viability: 0.222
[21]; first compound 0.0002 µM
  relative viability: 0.659
[21]; first compound 0.000632 µM
  relative viability: 0.573
[21]; first compound 0.002 µM
  relative viability: 0.363
[21]; first compound 0.006325 µM
  relative viability: 0.339
[22]; first compound 0.0002 µM
  relative viability: 0.533
[22]; first compound 0.000632 µM
  relative viability: 0.434
[22]; first compound 0.002 µM
  relative viability: 0.388
[22]; first compound 0.006325 µM
  relative viability: 0.36
[22]; first compound 0.02 µM
  relative viability: 0.252
